Test results as given in patent publication US20250188082A1, “Use of Hypoxanthine Compound In Preparation of Drug For Treating Pulmonary Fibrosis” (Sichuan Yiasuo Pharmaceutical Technology Co., Ltd., priority 2022, published 2025).

How the values were obtained:
Assay type in all cases: in vivo, C57BL/6 mice
[1] = test system: Streptococcus pneumoniae-induced pulmonary fibrosis model; experiment: Streptococcus pneumoniae-induced pulmonary fibrosis model; conditions: for Leucocyte / Lymphocyte / Neutrophil / Ashcroft scores: Streptococcus pneumoniae + bleomycin, 120 mg/kg/d intragastric, 14 days; for Leucocyte / Lymphocyte / Neutrophil: blood, Day 15, 3 times every day, from one week after model; for Ashcroft scores: lung tissue HE staining; for inhibition (anti-inflammatory) effect on leucocytes, neutrophils and lymphocytes in blood: mice with Streptococcus pneumoniae-induced pulmonary fibrosis, result in words
[2] = test system: bleomycin-induced pulmonary fibrosis model; experiment: Comparison with comparative drugs: bleomycin-induced model, hydroxyproline and TGF-β; conditions: 120 mg/kg/d intragastric, twice every day, 14 days, from two weeks after model; Day 15
[3] = test system: bleomycin-induced pulmonary fibrosis model; experiment: Advanced pulmonary fibrosis: bleomycin-induced model, dosing from three weeks after modelling; conditions: for Leucocyte / Lymphocyte / Neutrophil / Ashcroft scores: advanced pulmonary fibrosis, 120 mg/kg/d intragastric, 14 days, from three weeks after model; for Leucocyte / Lymphocyte / Neutrophil: blood, Day 15, twice every day; for Ashcroft scores: lung tissue HE staining; for inhibition (anti-inflammatory) effect on leucocytes, neutrophils and lymphocytes in blood: mice with advanced pulmonary fibrosis, result in words
[4] = test system: influenza A virus-induced pulmonary fibrosis model (FM1 strain of influenza A (H1N1) virus); experiment: Influenza A virus-induced pulmonary fibrosis model; conditions: 120 mg/kg/d intragastric, 14 days; for Ashcroft scores: influenza A virus + bleomycin, lung tissue HE; for IL-1β / IL-6 / NF-κB / TNF-α: serum, influenza A (H1N1) FM1 + bleomycin, from two weeks after model
From the text: Experimental method: an in-vivo influenza A virus-induced pulmonary fibrosis model was established: C57BL/6 mice (with weights being 22-25 g) were randomly and evenly divided into a plurality of groups, including blank control group, model group, Nintedanib positive control group, hypoxanthine analogue A group, hypoxanthine analogue B group, hypoxanthine analogue C group, compound 1 group, compound 2 group . . . compound 12 group, with 9 mice in each group. On Day 1, the mice in blank control group were instilled with normal saline nasally, and the mice in other groups were all infected with a FM1 strain of an influenza A (H1N1) virus 30 (μL) through nasal instillation. On Day 2, the mice received 5 mg/kg bleomycin through tracheas to induce their pulmonary fibrosis. After the model was established for two weeks, the mice in each group were intragastrically administrated for intervention for consecutive 14 days; the mice in blank control group and model group intragastrically received the same dosage of the normal saline as those in drug groups; the mice in Nintedanib positive control group received Nintedanib (120 mg/kg); the mice in hypoxanthine analogue A group, hypoxanthine analogue B group and hypoxanthine analogue C group respectively received hypoxanthine analogue A (120 mg/kg/d), hypoxanthine analogue B (120 mg/kg/d) and hypoxanthine analogue C (120 mg/kg/d); and the mice in compound 1 group, compound 2 group . . . compound 12 group respectively received compound 1 (120 mg/kg/d), compound 2 (120 mg/kg/d) . . . compound 12 (120 mg/kg/d) prepared in example 1. After administration for consecutive 14 days, the mice were observed every day, and their weights and death conditions were recorded. After administration, blood was taken from eyeballs for immediately detecting the expression levels of NF-κB, TNF-α, IL-1 and IL-6 in serum, and lung tissues were taken for HE detection and Ashcroft scoring.

[5] = test system: bleomycin-induced pulmonary fibrosis model; experiment: Early pulmonary fibrosis: bleomycin-induced model, dosing from one week after modelling; conditions: for Leucocyte / Lymphocyte / Neutrophil / Ashcroft scores: early pulmonary fibrosis, 120 mg/kg/d intragastric, 14 days, from one week after model; for Leucocyte / Lymphocyte / Neutrophil: blood, Day 15, twice every day; for Ashcroft scores: lung tissue HE staining; for inhibition (anti-inflammatory) effect on leucocytes, neutrophils and lymphocytes in blood: mice with early pulmonary fibrosis, result in words
[6] = test system: novel coronavirus-induced pulmonary fibrosis model (COVID-19 novel coronavirus strains); experiment: Novel coronavirus-induced pulmonary fibrosis model; conditions: 120 mg/kg/d intragastric, 14 days; for Ashcroft scores: novel coronavirus + bleomycin, lung tissue HE; for IL-1β / IL-6 / NF-κB / TNF-α: serum, COVID-19 novel coronavirus + bleomycin, from two weeks after model
From the text: Experimental method: an in-vivo novel coronavirus-induced pulmonary fibrosis model was established: C57BL/6 mice (with weights being 22-25 g) were randomly and evenly divided into a plurality of groups, including blank control group, model group, Nintedanib positive control group, hypoxanthine analogue A group, hypoxanthine analogue B group, hypoxanthine analogue C group, compound 1 group, a compound 2 group . . . compound 12 group, with 9 mice in each group. On Day 1, the mice in blank control group were instilled with normal saline nasally, and the mice in other groups were all infected with COVID-19 novel coronavirus strains (30 μL) through nasal instillation. On Day 2, the mice received 5 mg/kg bleomycin through tracheas to induce their pulmonary fibrosis. After the model was established for two weeks, the mice in each group were intragastrically administrated for intervention for consecutive 14 days; the mice in blank control group and model group intragastrically received the same dosage of normal saline as those in drug groups; the mice in Nintedanib positive control group received Nintedanib (120 mg/kg); the mice in hypoxanthine analogue A group, hypoxanthine analogue B group and hypoxanthine analogue C group respectively received hypoxanthine analogue A (120 mg/kg/d), hypoxanthine analogue B (120 mg/kg/d) and hypoxanthine analogue C (120 mg/kg/d); and the mice in compound 1 group, compound 2 group . . . compound 12 group respectively received compound 1 (120 mg/kg/d), compound 2 (120 mg/kg/d) . . . compound 12 (120 mg/kg/d) prepared in example 1. After administration for consecutive 14 days, the mice were observed every day, and their weights and death conditions were recorded. After administration, blood was taken from eyeballs for immediately detecting the expression levels of NF-κB, TNF-α, IL-1 and IL-6 in serum, and lung tissues were taken for HE detection and Ashcroft scoring.

In the case of `CC(C)Oc1ncnc2[nH]cnc12` [Compound 1], the Leucocyte [1] is reported as 5.52 10^9/L, the Lymphocyte [1] is reported as 5.99 10^9/L and the Neutrophil [1] is reported as 2.00 10^9/L. The Ashcroft scores [1] was 1.20, the “Hydroxyproline in bronchoalveolar lavage fluids” value [2] was 0.75 ± 0.04 µg/mg and the “Hydroxyproline in lung tissues” value [2] was 1.45 ± 0.09 µg/mg. The “TGF-β in bronchoalveolar lavage fluids” value [2] was 4.05 ± 0.15 µg/L, the “TGF-β in lung tissues” value [2] was 24.15 ± 1.21 µg/L and the Leucocyte [3] was 4.28 10^9/L. The Lymphocyte [3] was 5.33 10^9/L, the Neutrophil [3] was 1.37 10^9/L and the Ashcroft scores [3] was 0.95. For the same compound, the Ashcroft scores [4] was 1.21, the IL-1β [4] was 28.8 pg/mL and the IL-6 [4] was 63.9 pg/mL. The NF-κB [4] was 26.5 pg/mL, the TNF-α [4] was 87.1 pg/mL and the Leucocyte [5] was 4.15 10^9/L. The Lymphocyte [5] was 5.42 10^9/L, the Neutrophil [5] was 1.11 10^9/L and the Ashcroft scores [5] was 0.99. It also gave an Ashcroft scores [6] of 1.08, an IL-1β [6] of 36.4 pg/mL and an IL-6 [6] of 68.3 pg/mL. The NF-κB [6] was 26.6 pg/mL and the TNF-α [6] was 63.3 pg/mL.

With `O=c1[nH]cnc2[nH]cnc12` [Hypoxanthine analogue A, reference compound] the Leucocyte [1] was 155.12 10^9/L, the Lymphocyte [1] was 90.75 10^9/L and the Neutrophil [1] was 89.99 10^9/L. The Ashcroft scores [1] was 6.12, the “inhibition (anti-inflammatory) effect on leucocytes, neutrophils and lymphocytes in blood” value (from here on “inhibition (anti-inflammatory) effect”) [1] was “obviously inferior” and the “Hydroxyproline in bronchoalveolar lavage fluids” value [2] was 1.46 ± 0.13 µg/mg. The “Hydroxyproline in lung tissues” value [2] was 2.69 ± 0.12 µg/mg, the “TGF-β in bronchoalveolar lavage fluids” value [2] was 9.23 ± 0.26 µg/L and the “TGF-β in lung tissues” value [2] was 96.47 ± 8.25 µg/L. For the same compound, the Leucocyte [3] was 66.48 10^9/L, the Lymphocyte [3] was 71.65 10^9/L and the Neutrophil [3] was 67.48 10^9/L. For the same compound, the Ashcroft scores [3] was 5.88, the “inhibition (anti-inflammatory) effect” value [3] was “obviously inferior” and the Ashcroft scores [4] was 6.11. It also gave an IL-1β [4] of 323.1 pg/mL, an IL-6 [4] of 450.9 pg/mL and an NF-κB [4] of 780.3 pg/mL. The TNF-α [4] was 339.4 pg/mL, the Leucocyte [5] was 52.12 10^9/L and the Lymphocyte [5] was 49.53 10^9/L. The Neutrophil [5] was 41.21 10^9/L, the Ashcroft scores [5] was 5.00 and the “inhibition (anti-inflammatory) effect” value [5] was “obviously inferior”. The Ashcroft scores [6] was 6.13, the IL-1β [6] was 489.0 pg/mL and the IL-6 [6] was 554.5 pg/mL. The NF-κB [6] was 731.3 pg/mL and the TNF-α [6] was 400.5 pg/mL.

In the case of `CCOc1ncnc2c1ncn2C(C)C` [Compound 8], the Leucocyte [1] is reported as 6.68 10^9/L, the Lymphocyte [1] is reported as 8.09 10^9/L and the Neutrophil [1] is reported as 1.94 10^9/L. For the same compound, the Ashcroft scores [1] was 1.31, the “Hydroxyproline in bronchoalveolar lavage fluids” value [2] was 0.72 ± 0.06 µg/mg and the “Hydroxyproline in lung tissues” value [2] was 1.47 ± 0.10 µg/mg. For the same compound, the “TGF-β in bronchoalveolar lavage fluids” value [2] was 4.06 ± 0.18 µg/L, the “TGF-β in lung tissues” value [2] was 25.17 ± 2.35 µg/L and the Leucocyte [3] was 4.59 10^9/L. The Lymphocyte [3] was 5.73 10^9/L, the Neutrophil [3] was 1.42 10^9/L and the Ashcroft scores [3] was 1.21. For the same compound, the Ashcroft scores [4] was 1.28, the IL-1β [4] was 28.6 pg/mL and the IL-6 [4] was 66.0 pg/mL. For the same compound, the NF-κB [4] was 26.8 pg/mL, the TNF-α [4] was 89.9 pg/mL and the Leucocyte [5] was 4.27 10^9/L. For the same compound, the Lymphocyte [5] was 5.31 10^9/L, the Neutrophil [5] was 1.26 10^9/L and the Ashcroft scores [5] was 1.09. The Ashcroft scores [6] was 1.24, the IL-1β [6] was 38.4 pg/mL and the IL-6 [6] was 68.2 pg/mL. It also gave an NF-κB [6] of 23.4 pg/mL and a TNF-α [6] of 66.7 pg/mL.

`CC(=O)Oc1ncnc2c1ncn2C(C)C` [Compound 11] was tested, and the Leucocyte [1] was 6.29 10^9/L, the Lymphocyte [1] was 6.21 10^9/L and the Neutrophil [1] was 1.81 10^9/L. The Ashcroft scores [1] was 1.28, the “Hydroxyproline in bronchoalveolar lavage fluids” value [2] was 0.75 ± 0.05 µg/mg and the “Hydroxyproline in lung tissues” value [2] was 1.43 ± 0.11 µg/mg. The “TGF-β in bronchoalveolar lavage fluids” value [2] was 4.02 ± 0.15 µg/L, the “TGF-β in lung tissues” value [2] was 23.98 ± 2.19 µg/L and the Leucocyte [3] was 4.22 10^9/L. For the same compound, the Lymphocyte [3] was 5.57 10^9/L, the Neutrophil [3] was 1.39 10^9/L and the Ashcroft scores [3] was 1.07. It also gave an Ashcroft scores [4] of 1.26, an IL-1β [4] of 27.9 pg/mL and an IL-6 [4] of 64.6 pg/mL. For the same compound, the NF-κB [4] was 26.6 pg/mL, the TNF-α [4] was 88.7 pg/mL and the Leucocyte [5] was 4.09 10^9/L. The Lymphocyte [5] was 5.20 10^9/L, the Neutrophil [5] was 1.10 10^9/L and the Ashcroft scores [5] was 1.08. For the same compound, the Ashcroft scores [6] was 1.31, the IL-1β [6] was 37.2 pg/mL and the NF-κB [6] was 26.7 pg/mL. It also gave a TNF-α [6] of 69.0 pg/mL.

With `COc1ncnc2c1ncn2C(C)C` [Hypoxanthine analogue C, reference compound] the Leucocyte ([1]; 120 mg/kg/day) was 149.35 10^9/L, the Lymphocyte ([1]; 120 mg/kg/day) was 90.12 10^9/L and the Neutrophil ([1]; 120 mg/kg/day) was 82.11 10^9/L. For the same compound, the Ashcroft scores ([1]; 120 mg/kg/day) was 6.21, the “inhibition (anti-inflammatory) effect” value [1] was “obviously inferior” and the “Hydroxyproline in bronchoalveolar lavage fluids” value [2] was 1.12 ± 0.15 µg/mg. The “Hydroxyproline in lung tissues” value [2] was 2.85 ± 0.25 µg/mg, the “TGF-β in bronchoalveolar lavage fluids” value [2] was 7.42 ± 1.4 µg/L and the “TGF-β in lung tissues” value [2] was 63.83 ± 7.52 µg/L. For the same compound, the Leucocyte ([3]; 120 mg/kg/day) was 72.55 10^9/L, the Lymphocyte ([3]; 120 mg/kg/day) was 70.88 10^9/L and the Neutrophil ([3]; 120 mg/kg/day) was 59.66 10^9/L. The Ashcroft scores ([3]; 120 mg/kg/day) was 6.06, the “inhibition (anti-inflammatory) effect” value [3] was “obviously inferior” and the Ashcroft scores ([4]; 120 mg/kg/day) was 6.09. For the same compound, the IL-1β ([4]; 120 mg/kg/day) was 338.1 pg/mL, the IL-6 ([4]; 120 mg/kg/day) was 450.0 pg/mL and the NF-κB ([4]; 120 mg/kg/day) was 782.1 pg/mL. For the same compound, the TNF-α ([4]; 120 mg/kg/day) was 333.1 pg/mL, the Leucocyte ([5]; 120 mg/kg/day) was 50.11 10^9/L and the Lymphocyte ([5]; 120 mg/kg/day) was 50.06 10^9/L. For the same compound, the Neutrophil ([5]; 120 mg/kg/day) was 37.04 10^9/L, the Ashcroft scores ([5]; 120 mg/kg/day) was 5.46 and the “inhibition (anti-inflammatory) effect” value [5] was “obviously inferior”. It also gave an Ashcroft scores ([6]; 120 mg/kg/day) of 6.71, an IL-1β ([6]; 120 mg/kg/day) of 572.7 pg/mL and an IL-6 ([6]; 120 mg/kg/day) of 543.7 pg/mL. The NF-κB ([6]; 120 mg/kg/day) was 739.2 pg/mL and the TNF-α ([6]; 120 mg/kg/day) was 542.4 pg/mL.
